What was measured:
[1] = tested on: peptide-loaded human T2 lymphoma cell targets; experiment: CTL killing of BFA4 peptide-pulsed target cells; assay type: cell-based; conditions: single BFA4 peptides, listing = result
[2] = tested on: Human PBMC from an HLA-A2.1 positive donor; experiment: IFN-γ ELISPOT of human T cells activated with BFY3 peptide pools and deconvolution to single peptides; assay type: cell-based; conditions: BFY3 nonamer peptides; listing = result
Excerpt: Human PBMC from an HLA-A2.1 positive donor designated AP31 were activated with autologous dendritic cells pulsed with different pools of 9-mer peptides from the BFY3 antigen (see Table I for list). The activated T cells were re-stimulated after 12 days with activated autologous CD40-ligand-activated B cells pulsed with the same respective peptide pools for another 8 to 10 days. This secondary activation was repeated 2 more time for a total of 4 stimulations. The activated T cells were isolated after the 4th stimulation and subjected to ELISPOT analysis for human IFN-γ production against their respective BFY3 peptide pools as shown. The blue bars show reactivity against the BFY3 peptide pools and the red bars are for an HLA-A2.1-binding HIV peptide as a negative control. Standard deviations are indicated. The experiment was repeated 2 times on activated T cells from different rounds of peptide stimulation with the similar results (FIG. 17A).
The BFY3 peptide pools were deconvoluted and studied in IFN-γ ELISPOT assays. Stimulation was performed as described earlier for the other antigens described. After 4 rounds of stimulation, the T cells from each culture were harvested and subjected to ELISPOT analysis for IFN-γ production with each individual peptide in each pool. FIG. 17B illustrates individual peptide reactivity for each specific pool.

[3] = tested on: targets pulsed with corresponding peptide pools; experiment: CTL killing of targets pulsed with BFY3 peptide pools or peptides; assay type: cell-based, human
Description: (§1) In addition to ELISPOT analysis, human T cells activated by BFY3 peptides were assayed for reactivity. Ten pools of peptides consisting often peptides per pool used to generate CTL. These 10 groups of effectors used to kill targets pulsed with corresponding peptide pools. […]

[4] = tested on: CosA2 cells transfected with BFY3; experiment: CTL killing of BFY3-transfected cells; assay type: cell-based; conditions: CTL generated from BFY3 peptide pools
Description: as §1

BFA4 = experiment: Rabbit antibody titers after immunization with BFA4 22-mer peptides; assay type: in vivo
Excerpt: For monitoring purposes, rabbit anti-BFA4 polyclonal antibodies were generated. Six peptides (22-mers) were designed and synthesized to elicit antibody response to BFA4, as shown below:
Rabbits were immunized with the peptides, serum was isolated, and the following antibody titers were observed: […]

HLA-A*0201 human T cells = experiment: IFN-γ ELISPOT of human T cells activated with BFA5/NYBR-1 peptide pools and single peptides; assay type: cell-based; conditions: for BFA5 peptides eliciting high IFN-γ release (>200 spots/100,000 cells): listing = result
Description: A library of 100 peptides from the BFA5/NYBR-1 coding sequence that are predicted to be medium to high binders to HLA-A*0201 were designed using Rammensee and Parker algorithms. The library was sub-divided into 10 pools of ten peptides (see Table XI), and each pool was used to activate 10 different T cell cultures after pulsing peptides on to mature autologous dendritic cells.
ELISPOT analysis was performed on human T-cell cultures activated through four rounds of stimulation with each pool of BFA5 peptides. In FIG. 13A, the numbers under the X-axis indicate the number of each peptide pool (1-10). Reactivity against a CMV pp65 peptide, and a Flu matrix peptide were used as positive controls for T-cell activation in the experiments. Each experiment was performed with PBMC and dendritic cells from a single HLA-A*0201^+ donor designated as “AP10”. […] Similar results were obtained for both BFA4 and BFA5/NYBR-1 with a different HLA-A*0201. […] Cultures having a reading of 600 spots have more than this number of spots.
A large number of the BFA5 peptide pools of are reactive as shown by the high levels of IFN-γ production (FIG. 13A). Each reactive peptide pool was then separated into individual peptides and analyzed for immunogenicity using ELISPOT analysis to isolate single reactive BFA5 peptides. […] Similar results were obtained in two independent PBMC culture experiments.

peptide-loaded T2 cells = experiment: 51Cr-release CTL assay with BFA5 peptide-activated human T cells; assay type: cell-based
Description: In addition to ELISPOT analysis, human T cells activated by BFA5 peptides were assayed to determine their ability to function as CTL. The cells were activated using peptide-pulsed dendritic cells followed by CD40 ligand-activated B cells (5 rounds of stimulation). The experiment shown was performed with isolated PBMC from HLA-A*0201^+ donor AP31. Isolated T cells were tested in ^51Cr-release assays using peptide-loaded T2 cells. The % specific lysis at a 10:1, 5:1, and 1:1 T-cell to target ratio is shown for T2 cells pulsed with either pools of BFA5/NYBR-1 peptides or with individual peptides. […] CTL activity (percent specific lysis) induced by the control HIV peptide was generally <10%. Similar results were obtained with another PBMC donor expressing HLA-A*0201 (AP10). […]

[5] = first-listed rabbit of the pair
[6] = second-listed rabbit of the pair

For MLAFSFPAA [CLP 2427], the “Strong CTL Killing (listed as highly immunoreactive peptide)” value (“Strong CTL Killing” for short) [1] was “MLAFSFPAA”.
With MLWKLTDNI [CLP 3320] the “Peptides eliciting strong IFN-γ ELISPOT activity” value [2] was “MLWKLTDNI”, the “Peptides eliciting CTL activity (peptide pulsed targets)” value ([3]; BFY3 nonamer peptides, listing = result) was “MLWKLTDNI” and the “recognition of single peptides by CTL” value ([3]; BFY3 peptides, peptide-pulsed targets) was “strongly recognized”. For the same sequence, the “killing of CosA2 cells transfected with BFY3 by CTL” value [4] was “responsible for this cytotoxicity”.
MVRKKNPPLRNVASEGEGQILE [CLP2589] was tested, and the “Titer (Bleed 2)” value (BFA4; [5]) was 800000, the “Titer (Final Bleed)” value (BFA4; [5]) was 2560000, 2560000 and the “Titer (Bleed 2)” value (BFA4; [6]) was 1600000. For the same sequence, the “Titer (Final Bleed)” value (BFA4; [6]) was 2560000, 2560000.
In the case of NACGLYQKL [CLP 2495], the “Strong CTL Killing” value [1] is reported as “NACGLYQKL”.
In the case of NGEQIIRRRTRKRLNPEALQAE [CLP2593], the “Titer (Bleed 2)” value (BFA4; [5]) is reported as 3200000, the “Titer (Final Bleed)” value (BFA4; [5]) is reported as 2560000 and the “Titer (Bleed 2)” value (BFA4; [6]) is reported as 51200. For the same sequence, the “Titer (Final Bleed)” value (BFA4; [6]) was 160000.
With NHLQGSDGQQSVKESKEHSCTK [CLP2592] the “Titer (Bleed 2)” value (BFA4; [5]) was 25600, the “Titer (Final Bleed)” value (BFA4; [5]) was 80000 and the “Titer (Bleed 2)” value (BFA4; [6]) was 12800. For the same sequence, the “Titer (Final Bleed)” value (BFA4; [6]) was 40000.
For NLFGGVVNP [CLP 3351], the “Peptides eliciting strong IFN-γ ELISPOT activity” value [2] was “NLFGGVVNP”.
For NMLAFSFPA [CLP 2426], the “Strong CTL Killing” value [1] was “NMLAFSFPA”.
In the case of NVTLLTSLV [CLP 3380], the “Peptides eliciting strong IFN-γ ELISPOT activity” value [2] is reported as “NVTLLTSLV”.
For RLNPEALQA [CLP 2499], the “Strong CTL Killing” value [1] was “RLNPEALQA”.
With RNMLAFSFP [CLP 2425] the “Strong CTL Killing” value [1] was “RNMLAFSFP”.
With SCLTHFNLI [CLP 3403] the “Peptides eliciting strong IFN-γ ELISPOT activity” value [2] was “SCLTHFNLI”.
With SHGFGSPAV [CLP 3407] the “Peptides eliciting strong IFN-γ ELISPOT activity” value [2] was “SHGFGSPAV”.
SLPHAIEEV [CLP 3343] was tested, and the “Peptides eliciting strong IFN-γ ELISPOT activity” value [2] was “SLPHAIEEV”.
With SPKATEETGQAQSGQANCQGLS [CLP2590] the “Titer (Bleed 2)” value (BFA4; [5]) was 12800, the “Titer (Final Bleed)” value (BFA4; [5]) was 40000, 40000 and the “Titer (Bleed 2)” value (BFA4; [6]) was 6400. The “Titer (Final Bleed)” value (BFA4; [6]) was 40000, 40000.
For SQYSGQLKV [CLP 3015], the “IFN-γ secretion in T cells from both donors” value (HLA-A*0201 human T cells; donors AP10 and AP31) was “induce” and the “CTL activity in T cells from both donors” value (peptide-loaded T2 cells; donors AP10 and AP31) was “induce”.
In the case of VAKPSEKNSNKSIPALQSSDSG [CLP2591], the “Titer (Bleed 2)” value (BFA4; [5]) is reported as 400000, 400000, the “Titer (Final Bleed)” value (BFA4; [5]) is reported as 320000, 320000 and the “Titer (Bleed 2)” value (BFA4; [6]) is reported as 400000, 400000. The “Titer (Final Bleed)” value (BFA4; [6]) was 320000, 320000.
In the case of YLLHENQML [CLP 2997], the “BFA5 peptides eliciting high IFN-γ release (>200 spots/100,000 cells)” value (HLA-A*0201 human T cells; Donor AP10) is reported as “YLLHENCML”, the “BFA5 peptides eliciting high IFN-γ release (>200 spots/100,000 cells)” value (HLA-A*0201 human T cells; Donor AP31) is reported as “YLLHENCML” and the “BFA5 peptides inducing CTL lysis of pulsed cells” value (peptide-loaded T2 cells; Donor AP10, listing = result) is reported as “YLLHENCML”.
For YLTEALKAM [CLP 3415], the “Peptides eliciting strong IFN-γ ELISPOT activity” value [2] was “YLTEALKAM”.
With YVPYPTFNL [CLP 2509] the “Strong CTL Killing” value [1] was “YVPYPTFNL”.
